Experimental data reported in patent publication US8367873B2, “Phenyl-substituted bicyclooctane-1,3-dione derivatives” (Bayer Cropscience AG, priority 2008, dated 2013).

Experiments:
Format in all cases: in vivo
[1] = tested on: monocotylidonous and dicotylidonous weed and crop plants; test: Herbicidal post-emergence action (other test plants); details: post-emergence method; for herbicidal effect against AVEFA (Avena fatua): 80 g/ha; for pest or weed control at 80 g/ha: 504 h, Avena fatua, read-out: herbicidal effect against AVEFA (Avena fatua)
Procedure: (§1) Seeds of monocotylidonous and dicotylidonous weed and crop plants are placed in sandy loam in wood fibre pots, covered with soil and cultivated in a greenhouse under good growth conditions. Two to three weeks after sowing, the test plants are treated at the one-leaf stage. The test compounds, formulated as wettable powders (WP), are then with a water application rate of 600 l/ha (converted), with 0.2% of wetting agent added, sprayed onto the green parts of the plants in different amounts. After the test plants have been kept in the greenhouse under optimum growth conditions for about three weeks, the effect of the preparations is assessed visually in comparison to untreated controls (herbicidal effect in percent: 100% effect=the plants have died, 0% effect=like control plants).

Echinocloa crus-galli = test: Herbicidal post-emergence action; details: post-emergence method; for herbicidal effect against ECHCG (Echinochloa crus-galli): 80 g/ha; for pest or weed control at 80 g/ha: Echinochloa crus-galli, 504 h, read-out: herbicidal effect against ECHCG (Echinochloa crus-galli)
Procedure: as §1

Lolium multiflorum = test: Herbicidal post-emergence action; details: post-emergence method; for herbicidal effect against LOLMU (Lolium multiflorum): 80 g/ha; for pest or weed control at 80 g/ha: Lolium multiflorum, 504 h, read-out: herbicidal effect against LOLMU (Lolium multiflorum)
Procedure: as §1

Alopecurus myosuroides = test: Herbicidal post-emergence action; details: post-emergence method; for herbicidal effect against ALOMY (Alopecurus myosuroides): 80 g/ha; for pest or weed control at 80 g/ha: Alopecurus myosuroides, 504 h, read-out: herbicidal effect against ALOMY (Alopecurus myosuroides)
Procedure: as §1

Setaria viridis = test: Herbicidal post-emergence action; details: post-emergence method; for herbicidal effect against SETVI (Setaria viridis): 80 g/ha; for pest or weed control at 80 g/ha: Setaria viridis, 504 h, read-out: herbicidal effect against SETVI (Setaria viridis)
Procedure: as §1

Structure (SMILES) | herbicidal effect against AVEFA (Avena fatua) [1] | herbicidal effect against ECHCG (Echinochloa crus-galli) (Echinocloa crus-galli) | herbicidal effect against LOLMU (Lolium multiflorum) (Lolium multiflorum) | herbicidal effect against ALOMY (Alopecurus myosuroides) (Alopecurus myosuroides) | herbicidal effect against SETVI (Setaria viridis) (Setaria viridis) | pest or weed control at 80 g/ha [1] | pest or weed control at 80 g/ha (Echinocloa crus-galli) | pest or weed control at 80 g/ha (Lolium multiflorum) | pest or weed control at 80 g/ha (Alopecurus myosuroides) | pest or weed control at 80 g/ha (Setaria viridis)
CCc1cc(C)cc(CC)c1C1=C(O)C2CC3(CC2C1=O)OCCCS3 (mixture of isomers) [I-a-20] | 80% | 100% | 100% | 90% | 90% |  |  |  |  | 
Cc1cc(C)c(C2=C(OC(=O)CC(C)C)C3CC4(COC(C)(C)O4)CC3C2=O)c(C)c1 (mixture of isomers) [I-b-44] | 80% | 80% | 100% | 80% | 60% |  |  |  |  | 
COCC(=O)OC1=C(c2c(C)cc(C)cc2C)C(=O)C2CC3(COC(C)(C)O3)CC12 (mixture of isomers) [I-b-47] | 80% | 100% | 90% | 90% | 0% |  |  |  |  | 
CCC(=O)OC1=C(c2c(C)cc(C)cc2C)C(=O)C2CC3(COC(C)(C)O3)CC12 (mixture of isomers) [I-b-50] | 0% | 90% | 100% | 100% | 80% |  |  |  |  | 
CCOC(=O)OC1=C(c2c(C)cc(C)cc2C)C(=O)C2CC3(CC12)OCC(C)CO3 (mixture of isomers) [I-c-48] | 20% | 90% | 100% | 20% | 80% |  |  |  |  | 
Cc1cc(C)c(C2=C(OC(=O)OC(C)C)C3CC4(COC(C)(C)O4)CC3C2=O)c(C)c1 (mixture of isomers) [I-c-55] | 20% | 100% | 100% | 80% | 30% |  |  |  |  | 
CCOC(=O)OC1=C(c2c(C)cc(C)cc2C)C(=O)C2CC3(CC12)OCCCO3 (racemic) [I-c-47] | 90% | 100% | 100% | 100% | 60% |  |  |  |  | 
COC(=O)OC1=C(c2c(C)cc(C)cc2C)C(=O)C2CC3(CC12)OCCCCO3 (racemic) [I-c-49] | 80% | 90% | 100% | 100% | 80% |  |  |  |  | 
COC(=O)OC1=C(c2c(C)cc(C)cc2C)C(=O)C2CC(=O)CC12 (racemic) [I-c-57] | 0% | 100% | 0% | 90% | 90% |  |  |  |  | 
CCOC(=O)OC1=C(c2c(C)cc(C)cc2C)C(=O)C2CC(=O)CC12 (racemic) [I-c-58] | 0% | 100% | 0% | 0% | 100% |  |  |  |  | 
C#CCON=C1CC2C(=O)C(c3c(C)cc(C)cc3C)=C(OC(=O)OC)C2C1 (racemic) [I-c-59] | 0% | 100% | 60% | 0% | 20% |  |  |  |  | 
C#CCON=C1CC2C(=O)C(c3c(C)cc(C)cc3C)=C(OC(=O)OCC)C2C1 (racemic) [I-c-60] | 0% | 100% | 80% | 20% | 0% |  |  |  |  | 
CCc1cc(C)cc(CC)c1C1=C(O)[C@H]2CC3(C[C@H]2C1=O)SCCS3 (relative stereo) [I-a-16] | 30% | 90% | 80% | 30% | 80% |  |  |  |  | 
CCc1cc(C)cc(CC)c1C1=C(O)[C@H]2CC3(C[C@H]2C1=O)SCCCS3 (relative stereo) [I-a-17] | 40% | 90% | 90% | 30% | 80% |  |  |  |  | 
C#CCON=C1C[C@@H]2C(O)=C(c3c(CC)cc(C)cc3CC)C(=O)[C@@H]2C1 (relative stereo) [I-a-33] | 0% | 100% | 100% | 100% | 90% |  |  |  |  | 
Cc1cc(C)c(C2=C(O)[C@H]3CC4(C[C@H]3C2=O)OCCCO4)c(C)c1 (relative stereo) [I-a-37] | 90% | 100% | 100% | 60% | 60% |  |  |  |  | 
CCOC(=O)OC1=C(c2c(CC)cc(C)cc2CC)C(=O)[C@@H]2CC3(C[C@H]12)SCCS3 (relative stereo) [I-c-15] | 60% | 90% | 90% | 90% | 90% |  |  |  |  | 
CCc1cc(C)cc(CC)c1C1=C(O)[C@H]2CC(=O)C[C@H]2C1=O (stereo in doubt) [I-a-4, 2-(2,6-diethyl-4-methylphenyl)-3-hydroxy-3a,4,6,6a-tetrahydropentalene-1,5-dione] |  |  |  |  |  | 30% | 100% | 20% | 60% | 100%
CCc1cc(C)cc(CC)c1C1C(=O)[C@H]2C/C(=N\OC)C[C@H]2C1=O (stereo partly drawn) [I-a-18] |  |  |  |  |  | 60% | 100% | 100% | 90% | 90%
C#CCON=C1CC2C(=O)C(c3c(C)cc(C)cc3C)=C(O)C2C1 (stereo not drawn) [I-a-43] | 0% | 90% | 40% | 20% | 40% |  |  |  |  | 
CON=C1CC2C(=O)C(c3c(C)cc(C)cc3C)=C(O)C2C1 (stereo not drawn) [I-a-44] | 0% | 100% | 20% | 20% | 80% |  |  |  |  | 
COc1cc(C)cc(C)c1C1=C(O)C2CC(=O)CC2C1=O (stereo not drawn) [I-a-46] | 0% | 100% | 0% | 0% | 40% |  |  |  |  | 
COc1cc(C)cc(C)c1C1=C(O)C2CC3(CC2C1=O)OCCCO3 (stereo not drawn) [I-a-47] | 80% | 100% | 100% | 20% | 100% |  |  |  |  | 
CCc1cc(C)cc(C)c1C1=C(O)C2CC(=O)CC2C1=O (stereo not drawn) [I-a-56] | 0% | 100% | 0% | 0% | 100% |  |  |  |  | 
CCc1cc(C)cc(C)c1C1=C(O)C2CC3(CC2C1=O)OCC=CCO3 (stereo not drawn) [I-a-60] | 90% | 100% | 100% | 100% | 100% |  |  |  |  | 
CCC(=O)OC1=C(c2c(CC)cc(C)cc2CC)C(=O)C2CC3(CC12)SCCCS3 (stereo not drawn) [I-b-9] | 0% | 90% | 40% | 90% | 40% |  |  |  |  | 
CCc1cc(C)cc(CC)c1C1=C(OC(=O)COC)C2CC3(CC2C1=O)SCCCS3 (stereo not drawn) [I-b-10] | 20% | 90% | 70% | 90% | 70% |  |  |  |  | 
